Data published in patent US9839642B2, “Beta-tetrazolyl-propionic acids as metallo-beta-lactamase inhibitors” (priority 2014, dated 2017).
Read-outs that look alike come from different tables or passages of the source.

Legend:
[1] = target: IMP-1 (Serratia marcescens, UniProt P52699); assay: Enzyme activity: determination of IC50, fluorescence assay with CCF2-FA substrate; type: biochemical; details: CCF2-FA 1.25 μM, 2 hours at 25° C., read-out: IMP1 IC50
Summary of the method: (§1)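 100 mM KH2PO4 pH 7 + 0.005% Tween-20 + 10 μM ZnSO4; CCF2-FA 1.25 μM; NDM-1 1 pM, IMP-1 2 pM, VIM-1 30 pM; cpd 20–0.00063 μM final, DMSO 1:50. 2 h, 25° C. Ex 405/em 460 nm; IC50, 4-param fit.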

[2] = target: VIM-1 (Pseudomonas aeruginosa, UniProt A0A0F7KYQ8); assay: as above; type: biochemical; details: CCF2-FA 1.25 μM, 2 hours at 25° C., read-out: VIM1 IC50
Summary of the method: as §1

[3] = target: NDM-1 (Klebsiella pneumoniae, UniProt C7C422); assay: as above; type: biochemical; details: CCF2-FA 1.25 μM, 2 hours at 25° C., read-out: NDM1 IC50
Summary of the method: as §1

[4] = tested on: Escherichia coli expressing NDM-1 (CLB30016); assay: Antibiotic potentiation activity: synergistic concentration (MITC95) with imipenem, growth by OD600; type: cell-based
Summary of the method: (§2)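 MITC95 = lowest inhibitor concentration giving 95% growth inhibition, read by absorbance after 22–24 h at 35° C. Compound range 200 μM to 0.195 μM, imipenem fixed at 1 or 4 μg/ml, bacteria in 1.1×CAMHB from saline suspension diluted 1:100.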

[5] = tested on: Klebsiella pneumoniae expressing VIM-1 (IHMA599644); assay: as above; type: cell-based
Summary of the method: as §2

[6] = tested on: Serratia marcescens expressing IMP-1 (CL5741); assay: as above; type: cell-based
Summary of the method: as §2

[7] = E. coli CLB30016 (NDM-1), 95% inhibition of growth
[8] = K. pneumoniae IHMA599644 (VIM-1), 95% inhibition of growth
[9] = S. marcescens CL5741 (IMP-1), 95% inhibition of growth
[10] = 95% inhibition of bacterial growth, strain CLB30016
[11] = 95% inhibition of bacterial growth, strain IHMA599644
[12] = 95% inhibition of bacterial growth, strain CL5741

Chain of NDM-1 (C7C422 29-270, looked up, species assumed): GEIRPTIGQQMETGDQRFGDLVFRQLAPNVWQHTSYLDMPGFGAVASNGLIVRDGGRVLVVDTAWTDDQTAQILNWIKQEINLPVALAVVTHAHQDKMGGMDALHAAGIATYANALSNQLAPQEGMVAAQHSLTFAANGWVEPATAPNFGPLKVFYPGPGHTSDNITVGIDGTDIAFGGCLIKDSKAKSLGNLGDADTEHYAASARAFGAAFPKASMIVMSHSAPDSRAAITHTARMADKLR
Chain of IMP-1 (P52699 19-246, looked up, species assumed): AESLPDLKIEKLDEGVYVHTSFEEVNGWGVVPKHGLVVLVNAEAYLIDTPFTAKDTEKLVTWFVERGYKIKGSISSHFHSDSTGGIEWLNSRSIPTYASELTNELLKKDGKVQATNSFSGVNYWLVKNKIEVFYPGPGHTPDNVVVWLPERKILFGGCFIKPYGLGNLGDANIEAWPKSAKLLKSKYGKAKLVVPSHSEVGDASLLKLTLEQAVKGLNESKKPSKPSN

Row | Structure (SMILES) | IC50 ([1]; IMP-1 enzyme 2 pM) [nM] | IC50 ([2]; VIM-1 enzyme 30 pM) [nM] | IC50 ([3]; NDM-1 enzyme 1 pM) [nM] | NDM1 EC30016 MITC95 [4, 7] [µM] | VIM1 KP599644 MITC95 [5, 8] [µM] | IMP1 SM5741 MITC95 [6, 9] [µM] | IC50 ([1]; enzyme 2 pM) [nM] | IC50 ([2]; enzyme 30 pM) [nM] | IC50 ([3]; enzyme 1 pM) [nM] | NDM1 EC30016 MITC95 [4, 10] [µM] | VIM1 KP599644 MITC95 [5, 11] [µM] | IMP1 SM5741 MITC95 [6, 12] [µM]
1 | CCC[C@H](C(=O)O)C(Cc1cccc(C(F)(F)F)c1)c1nnn[nH]1 (stereo in doubt) [Example 267, (2S)-2-{(1S)-1-(1H-tetrazol-5-yl)-2-[3-(trifluoromethyl)phenyl]ethyl}pentanoic acid] | 280 | 0.86 | 14 | 9.4 | 18.8 | 9.4 |  |  |  |  |  | 
2 | CCC[C@H](C(=O)O)[C@H](Cc1cnc(N2CCOCC2)nc1)c1nnn[nH]1 [Example 287, (S)-2-((S)-2-(2-morpholinopyrimidin-5-yl)-1-(1H-tetrazol-5-yl)ethyl)pentanoic acid] | 9200 | 5 | 100 | 25 | 50 | 75 |  |  |  |  |  | 
3 | CCC[C@H](C(=O)O)[C@H](Cc1ccc(C2=CCCNC2)cc1)c1nn[nH]n1 [Example 302, (2S)-2-[(1S)-2-[4-(1,2,5,6-tetrahydropyridin-3-yl)phenyl]-1-(2H-tetrazol-5-yl)ethyl]pentanoic acid] | 3100 | 18 | 980 | 38 | 50 | 50 |  |  |  |  |  | 
4 | CCC[C@H](C(=O)O)[C@H](Cc1ccccc1-c1ccc(NS(C)(=O)=O)cc1)c1nn[nH]n1 [Example 402, (2S)-2-[(1S)-2-{4′-[(methylsulfonyl)amino]biphenyl-2-yl}-1-(2H-tetrazol-5-yl)ethyl]pentanoic acid] | 230 | 1.5 | 0.095 | 3.1 | 25 | 12.5 |  |  |  |  |  | 
5 | CCC[C@H](C(=O)O)[C@H](Cc1cccc(-c2ccc3c(c2)CCC(N)C3)c1)c1nn[nH]n1 (stereo partly drawn) [Example 354, (2S)-2-[(1S)-2-[3-(6-amino-5,6,7,8-tetrahydronaphthalen-2-yl)phenyl]-1-(2H-tetrazol-5-yl)ethyl]pentanoic acid] | 310 | 1.4 | 13 | 9.4 | 9.4 | 4.7 |  |  |  |  |  | 
6 | CCC[C@H](C(=O)O)[C@H](Cc1cc(C(F)(F)F)cc(C(F)(F)F)c1)c1nnn[nH]1 [Example 269, (2S)-2-[(1S)-2-[3,5-bis(trifluoromethyl)phenyl]-1-(1H-tetrazol-5-yl)ethyl]pentanoic acid] | 1500 | 0.76 | 36 | 18.8 | 38 | 38 |  |  |  |  |  | 
7 | CCC[C@H](C(=O)O)[C@H](Cc1ccc(NCc2cc(OC)cc(OC)c2)nc1)c1nnn[nH]1 [Example 144, (S)-2-((S)-2-(6-((3,5-dimethoxybenzyl)amino)pyridin-3-yl)-1-(1H-tetrazol-5-yl)ethyl)pentanoic acid] |  |  |  |  |  |  | 370 | 15 | 16 | 7.8 | 200 | 62
8 | CC(C)C[C@H](C(=O)O)[C@H](Cc1ccc(C2CCNCC2)nc1)c1nnn[nH]1 [Example 103, (S)-4-methyl-2-((S)-2-(6-(piperidin-4-yl)pyridin-3-yl)-1-(1H-tetrazol-5-yl)ethyl)pentanoic acid] |  |  |  |  |  |  | 960 | 3.4 | 150 | 6.2 | 18.8 | 18.8
9 | O=C(O)[C@@H](C1CCOC1)[C@H](Cc1ccc(C2CCNC2)cc1)c1nnn[nH]1 (stereo partly drawn) [Example 107, (2R,3S)-4-(4-(pyrrolidin-3-yl)phenyl)-2-(tetrahydrofuran-3-yl)-3-(1H-tetrazol-5-yl)butanoic acid] |  |  |  |  |  |  | 5900 | 30 | 380 | 9.4 | 12.5 | 50
10 | CCC[C@H](C(=O)O)[C@H](Cc1ccc(C(=O)NC)cc1)c1nnn[nH]1 [Example 279, (2S)-2-[(1S)-2-[4-(methylcarbamoyl)phenyl]-1-(1H-tetrazol-5-yl)ethyl]pentanoic acid] | 9500 | 100 | 1000 | 150 | >200 | >200 |  |  |  |  |  | 
11 | CC(C)[C@H](C(=O)O)[C@H](Cc1ccc(NC(CO)CO)nc1)c1nnn[nH]1 [Example 141, (2S,3S)-4-(6-((1,3-dihydroxypropan-2-yl)amino)pyridin-3-yl)-2-isopropyl-3-(1H-tetrazol-5-yl)butanoic acid] |  |  |  |  |  |  | > 20000 | 800 | 3600 | 12.5 | 150 | >200
12 | CC(C)C[C@H](C(=O)O)[C@H](Cc1ccc(C2CCNC2)nc1)c1nnn[nH]1 (stereo partly drawn) [Example 100, (2S)-4-methyl-2-((1S)-2-(6-(pyrrolidin-3-yl)pyridin-3-yl)-1-(1H-tetrazol-5-yl)ethyl)pentanoic acid] |  |  |  |  |  |  | 2900 | 4.9 | 280 | 6.2 | 12.5 | 25
13 | CC(C)C[C@H](C(=O)O)[C@H](Cc1cc(Cl)nc(NCCO)c1)c1nnn[nH]1 [Example 407] | 923 | 2.22 | 34.4 | 18.75 | 50 | 75 |  |  |  |  |  | 
14 | CNc1ccc(C[C@H](c2nnn[nH]2)[C@@H](C(=O)O)C(C)C)cn1 [Example 152, (2S,3S)-2-isopropyl-4-(6-(methylamino)pyridin-3-yl)-3-(1H-tetrazol-5-yl)butanoic acid] |  |  |  |  |  |  | 5300 | 29 | 62 | 0.39 | 6.2 | 38
15 | CC(C)C[C@H](C(=O)O)[C@H](Cc1ccc(Oc2ccc(CO)cc2)nc1)c1nn[nH]n1 [Example 383, (2S)-2-[(1S)-2-{6-[4-(hydroxymethyl)phenoxy]pyridin-3-yl}-1-(2H-tetrazol-5-yl)ethyl]-4-methylpentanoic acid] | 150 | 56 | 34 | 25 | 150 | 12.5 |  |  |  |  |  | 
16 | CC(C)[C@H](C(=O)O)[C@H](Cc1ccc(C2=CCNC2)cc1)c1nnn[nH]1 [Example 60, (2S,3S)-4-(4-(2,5-dihydro-1H-pyrrol-3-yl)phenyl)-2-isopropyl-3-(1H-tetrazol-5-yl)butanoic acid] |  |  |  |  |  |  | 760 | 1.9 | 56 | 3.1 | 4.7 | 9.4
17 | CC(C)C[C@H](C(=O)O)[C@H](Cc1ccc(N2CC(S(C)(=O)=O)C2)nc1)c1nnn[nH]1 [Example 335, (2S)-4-methyl-2-[(1S)-2-{6-[3-(methylsulfonyl)azetidin-1-yl]pyridin-3-yl}-1-(1H-tetrazol-5-yl)ethyl]pentanoic acid] | 56 | 4.9 | 59 | 6.2 | 75 | 3.1 |  |  |  |  |  | 
18 | CC(C)C[C@H](C(=O)O)[C@H](Cc1ccc(-c2ccc(CN)cc2)c(F)c1)c1nn[nH]n1 [Example 454, (4′-((2S,3S)-3-carboxy-5-methyl-2-(2H-tetrazol-5-yl)hexyl)-2′-fluoro-[1,1′-biphenyl]-4-yl)methanaminium 2,2,2-trifluoroacetate] | 24.7 | 3.52 | 29.5 | 4.688 | 25 | 1.563 |  |  |  |  |  | 
19 | CC(C)C[C@H](C(=O)O)[C@H](Cc1ccc(N2CC(C)(CN)C2)nc1)c1nnn[nH]1 [Example 325, (2S)-2-[(1S)-2-{6-[3-(aminomethyl)-3-methylazetidin-1-yl]pyridin-3-yl}-1-(1H-tetrazol-5-yl)ethyl]-4-methylpentanoic acid] | 4400 | 36 | 1100 | 12.5 | 75 | 75 |  |  |  |  |  | 
